{"source": "ChEMBL document CHEMBL5370585", "about": "“Exploration and Biological Evaluation of 1,3-Diamino-7H-pyrrol[3,2-f]quinazoline Derivatives as Dihydrofolate Reductase Inhibitors” (J Med Chem, 2023)", "key": {"[1]": {"system": "Staphylococcus aureus", "test": "Antibacterial activity against Staphylococcus aureus ATCC 29213 incubated for 16 to 18 hrs by CLSI based broth dilution method", "assay_type": "functional", "settings": "time 16-18 hrs"}, "[2]": {"system": "Staphylococcus aureus", "test": "Antibacterial activity against methicillin-resistant Staphylococcus aureus ATCC 43300 incubated for 16 to 18 hrs by CLSI based broth dilution method", "assay_type": "functional", "settings": "time 16-18 hrs"}, "[3]": {"system": "Staphylococcus epidermidis", "test": "Antibacterial activity against Staphylococcus epidermidis ATCC 12228 incubated for 16 to 18 hrs by CLSI based broth dilution method", "assay_type": "functional", "settings": "time 16-18 hrs"}, "[4]": {"system": "Acinetobacter baumannii", "test": "Antibacterial activity against Acinetobacter baumannii ATCC 19606 incubated for 16 to 18 hrs by CLSI based broth dilution method", "assay_type": "functional", "settings": "time 16-18 hrs"}, "[5]": {"system": "Enterococcus faecalis", "test": "Antibacterial activity against Enterococcus faecalis ATCC 29212 incubated for 16 to 18 hrs by CLSI based broth dilution method", "assay_type": "functional", "settings": "time 16-18 hrs"}, "[6]": {"system": "Escherichia coli", "test": "Antibacterial activity against Escherichia coli ATCC 25922 incubated for 16 to 18 hrs by CLSI based broth dilution method", "assay_type": "functional", "settings": "time 16-18 hrs"}, "[7]": {"system": "Staphylococcus aureus", "test": "Antibacterial activity against methicillin-sensitive Staphylococcus aureus 15-1 incubated for 16 to 18 hrs by CLSI based broth dilution method", "assay_type": "functional", "settings": "time 16-18 hrs"}, "[8]": {"system": "Staphylococcus aureus", "test": "Antibacterial activity against methicillin-sensitive Staphylococcus aureus 15-2 incubated for 16 to 18 hrs by CLSI based broth dilution method", "assay_type": "functional", "settings": "time 16-18 hrs"}, "[9]": {"system": "Staphylococcus aureus", "test": "Antibacterial activity against methicillin-sensitive Staphylococcus aureus ATCC 29213 incubated for 16 to 18 hrs by CLSI based broth dilution method", "assay_type": "functional", "settings": "time 16-18 hrs"}, "[10]": {"system": "Staphylococcus aureus", "test": "Antibacterial activity against methicillin-sensitive Staphylococcus aureus ATCC 25923 incubated for 16 to 18 hrs by CLSI based broth dilution method", "assay_type": "functional", "settings": "time 16-18 hrs"}, "[11]": {"system": "Staphylococcus aureus", "test": "Antibacterial activity against methicillin-resistant Staphylococcus aureus ATCC 33591 incubated for 16 to 18 hrs by CLSI based broth dilution method", "assay_type": "functional", "settings": "time 16-18 hrs"}, "[12]": {"system": "Staphylococcus aureus", "test": "Antibacterial activity against vancomycin intermediate Staphylococcus aureus ATCC 700788 incubated for 16 to 18 hrs by CLSI based broth dilution method", "assay_type": "functional", "settings": "time 16-18 hrs"}, "[13]": {"system": "Staphylococcus aureus", "test": "Antibacterial activity against vancomycin intermediate Staphylococcus aureus ATCC 700699 incubated for 16 to 18 hrs by CLSI based broth dilution method", "assay_type": "functional", "settings": "time 16-18 hrs"}, "[14]": {"system": "Enterococcus faecalis", "test": "Antibacterial activity against Enterococcus faecalis EFA19-1 incubated for 16 to 18 hrs by CLSI based broth dilution method", "assay_type": "functional", "settings": "time 16-18 hrs"}, "[15]": {"system": "Enterococcus faecalis", "test": "Antibacterial activity against Enterococcus faecalis EFA19-2 incubated for 16 to 18 hrs by CLSI based broth dilution method", "assay_type": "functional", "settings": "time 16-18 hrs"}, "[16]": {"system": "Enterococcus", "test": "Antibacterial activity against Vancomycin-resistant Enterococcus ATCC 51575 incubated for 16 to 18 hrs by CLSI based broth dilution method", "assay_type": "functional", "settings": "time 16-18 hrs"}, "[17]": {"system": "Escherichia coli", "test": "Antibacterial activity against Escherichia coli ATCC BAA-2340 incubated for 16 to 18 hrs by CLSI based broth dilution method", "assay_type": "functional", "settings": "time 16-18 hrs"}, "[18]": {"system": "Escherichia coli", "test": "Antibacterial activity against Escherichia coli ECO 15-1 incubated for 16 to 18 hrs by CLSI based broth dilution method", "assay_type": "functional", "settings": "time 16-18 hrs"}, "[19]": {"system": "Klebsiella pneumoniae", "test": "Antibacterial activity against Klebsiella pneumoniae 15-1 assessed as reduction in microbial growth incubated for 16 to 18 hrs by CLSI based broth dilution method", "assay_type": "functional", "settings": "time 16-18 hrs"}, "[20]": {"system": "Klebsiella pneumoniae", "test": "Antibacterial activity against Klebsiella pneumoniae ATCC 700603 assessed as reduction in microbial growth incubated for 16 to 18 hrs by CLSI based broth dilution method", "assay_type": "functional", "settings": "time 16-18 hrs"}, "[21]": {"system": "Acinetobacter baumannii", "test": "Antibacterial activity against Acinetobacter baumannii ATCC 19606 assessed as reduction in microbial growth incubated for 16 to 18 hrs by CLSI based broth dilution method", "assay_type": "functional", "settings": "time 16-18 hrs"}, "[22]": {"system": "Acinetobacter baumannii", "test": "Antibacterial activity against Acinetobacter baumannii 20-1 incubated for 16 to 18 hrs by CLSI based broth dilution method", "assay_type": "functional", "settings": "time 16-18 hrs"}, "[23]": {"system": "Acinetobacter baumannii", "test": "Antibacterial activity against Acinetobacter baumannii 20-2 incubated for 16 to 18 hrs by CLSI based broth dilution method", "assay_type": "functional", "settings": "time 16-18 hrs"}, "[24]": {"system": "Pseudomonas aeruginosa", "test": "Antibacterial activity against Pseudomonas aeruginosa ATCC 27853 incubated for 16 to 18 hrs by CLSI based broth dilution method", "assay_type": "functional", "settings": "time 16-18 hrs"}, "[25]": {"target": "T1, Dihydrofolate reductase (Homo sapiens) (UniProt P00374)", "T1 sequence (whole entry)": "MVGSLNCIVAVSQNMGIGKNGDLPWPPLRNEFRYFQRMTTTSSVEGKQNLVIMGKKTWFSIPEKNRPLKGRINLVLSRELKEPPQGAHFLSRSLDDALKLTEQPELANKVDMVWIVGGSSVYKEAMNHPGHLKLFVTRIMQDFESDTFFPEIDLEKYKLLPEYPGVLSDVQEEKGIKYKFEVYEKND", "test": "Inhibition of human DHFR at 1 uM incubated for 10 mins in presence of NADPH by colorimetry based analysis relative to control"}, "[26]": {"system": "MCF7", "test": "Cytotoxicity against human MCF7 cells measured after 72 hrs by MTT assay", "assay_type": "functional, cell-based", "settings": "MCF7, 72 h"}, "[27]": {"system": "HGC-27", "test": "Cytotoxicity against human HGC-27 cells measured after 72 hrs by MTT assay", "assay_type": "functional, cell-based", "settings": "HGC-27, 72 h"}, "[28]": {"system": "HCT-116", "test": "Cytotoxicity against human HCT-116 cells measured after 72 hrs by MTT assay", "assay_type": "functional, cell-based", "settings": "HCT-116, 72 h"}, "[29]": {"system": "HepG2", "test": "Cytotoxicity against human HepG2 cells measured after 72 hrs by MTT assay", "assay_type": "functional, cell-based", "settings": "HepG2, 72 h"}, "[30]": {"test": "Metabolic stability in mouse liver microsomes assessed as intrinsic clearance at 1 uM measured upto 60 mins in presence of NADPH by LC-MS/MS analysis", "assay_type": "ADME, Microsome", "settings": "read-out: CLH"}, "[31]": {"test": "Metabolic stability in mouse liver microsomes assessed as hepatic clearance at 1 uM measured upto 60 mins in presence of NADPH by LC-MS/MS analysis", "assay_type": "ADME, Microsome", "settings": "1 h"}}, "data": [{"smiles": "Nc1nc(N)c2c(ccc3c2ccn3Cc2cccc3cccnc23)n1", "values": [{"measurement": "MIC", "setting": "[1]", "value": 0.25, "unit": "µg/mL"}, {"measurement": "MIC", "setting": "[2]", "value": "≤ 0.03", "unit": "µg/mL"}, {"measurement": "MIC", "setting": "[3]", "value": 1, "unit": "µg/mL"}, {"measurement": "MIC", "setting": "[4]", "value": 2, "unit": "µg/mL"}, {"measurement": "MIC", "setting": "[5]", "value": 0.06, "unit": "µg/mL"}, {"measurement": "MIC", "setting": "[6]", "value": 0.5, "unit": "µg/mL"}, {"measurement": "MIC", "setting": "[7]", "value": "≤ 0.03", "unit": "µg/mL"}, {"measurement": "MIC", "setting": "[8]", "value": "≤ 0.03", "unit": "µg/mL"}, {"measurement": "MIC", "setting": "[9]", "value": "≤ 0.03", "unit": "µg/mL"}, {"measurement": "MIC", "setting": "[10]", "value": "≤ 0.03", "unit": "µg/mL"}, {"measurement": "MIC", "setting": "[11]", "value": "≤ 0.03", "unit": "µg/mL"}, {"measurement": "MIC", "setting": "[12]", "value": "≤ 0.03", "unit": "µg/mL"}, {"measurement": "MIC", "setting": "[13]", "value": 0.06, "unit": "µg/mL"}, {"measurement": "MIC", "setting": "[14]", "value": "≤ 0.03", "unit": "µg/mL"}, {"measurement": "MIC", "setting": "[15]", "value": "≤ 0.03", "unit": "µg/mL"}, {"measurement": "MIC", "setting": "[16]", "value": "≤ 0.03", "unit": "µg/mL"}, {"measurement": "MIC", "setting": "[17]", "value": "> 64", "unit": "µg/mL"}, {"measurement": "MIC", "setting": "[18]", "value": "> 64", "unit": "µg/mL"}, {"measurement": "MIC", "setting": "[19]", "value": 16, "unit": "µg/mL"}, {"measurement": "MIC", "setting": "[20]", "value": 16, "unit": "µg/mL"}, {"measurement": "MIC", "setting": "[21]", "value": 2, "unit": "µg/mL"}, {"measurement": "MIC", "setting": "[22]", "value": 64, "unit": "µg/mL"}, {"measurement": "MIC", "setting": "[23]", "value": 2, "unit": "µg/mL"}, {"measurement": "MIC", "setting": "[24]", "value": "> 64", "unit": "µg/mL"}, {"measurement": "inhibition", "setting": "[25]", "value": 38.7, "unit": "%"}, {"measurement": "IC50", "setting": "[26]", "value": 1450, "unit": "nM"}, {"measurement": "IC50", "setting": "[27]", "value": 1710, "unit": "nM"}, {"measurement": "IC50", "setting": "[28]", "value": "> 10000", "unit": "nM"}, {"measurement": "IC50", "setting": "[29]", "value": 1220, "unit": "nM"}]}, {"smiles": "COc1ccc2c(c1)[C@]13CCCC[C@@H]1[C@H](C2)N(C)CC3", "note": "[DEXTROMETHORPHAN]", "values": [{"measurement": "microsomal CLint at 1 µM", "setting": "[30]", "value": 135, "unit": "µL/min/mg"}, {"measurement": "CLH", "setting": "[31]", "value": 77, "unit": "mL/min/kg"}]}]}
